Article PMC4412466 (Supramolecular chemistry, 2014)

Key:
[1] = Phase solubility diagram of container with excess cinnarizine; type: physicochemical; conditions: 50 mM NaOAc buffer, pD 4.74
[2] = Phase solubility diagram of container with excess albendazole; type: physicochemical; conditions: 50 mM NaOAc buffer, pD 4.74
[3] = Phase solubility diagram of container with excess camptothecin; type: physicochemical; conditions: 0.01 M DCl, pD 2.0
[4] = cited from earlier work

Cucurbit[7]uril [CB[7]]
maximum [cinnarizine] obtained with container [1]: 13.7 mM | affinity toward albendazole (slope of phase solubility diagram), CB[7] versus 1 [2]: comparable | affinity toward camptothecin (slope of phase solubility diagram), CB[7] versus 1 [3]: comparable affinity | solubility in water [4]: 20 to 30 mM
